# Results as given in ChEMBL document CHEMBL4270624, “Synthesis and antibacterial evaluation of 13-substituted cycloberberine derivatives as a novel class of anti-MRSA agents” (Eur J Med Chem, 2018).
# Legend:
# Assay type in all cases: functional
# [1] = tested on: Staphylococcus aureus; assay: Antibacterial activity against methicillin-sensitive Staphylococcus aureus ATCC 29213 after 18 hrs by agar dilution method; conditions: ATCC 29213, 18 h
# [2] = tested on: Staphylococcus aureus; assay: Antibacterial activity against methicillin-sensitive Staphylococcus aureus 16-1 clinical isolate after 18 hrs by agar dilution method; conditions: 16-1, 18 h
# [3] = tested on: Staphylococcus aureus; assay: Antibacterial activity against methicillin-resistant Staphylococcus aureus ATCC 33591 after 18 hrs by agar dilution method; conditions: ATCC 33591, 18 h
# [4] = tested on: Staphylococcus aureus; assay: Antibacterial activity against methicillin-resistant Staphylococcus aureus ATCC 43300 after 18 hrs by agar dilution method; conditions: ATCC 43300, 18 h
# [5] = tested on: Staphylococcus aureus; assay: Antibacterial activity against methicillin-resistant Staphylococcus aureus ATCC BAA-976 after 18 hrs by agar dilution method; conditions: ATCC BAA-976, 18 h
# [6] = tested on: Staphylococcus aureus; assay: Antibacterial activity against methicillin-resistant Staphylococcus aureus ATCC BAA-1708 after 18 hrs by agar dilution method; conditions: ATCC BAA-1708, 18 h
# [7] = tested on: Staphylococcus aureus; assay: Antibacterial activity against methicillin-resistant Staphylococcus aureus 13-18 clinical isolate after 18 hrs by agar dilution method; conditions: 13-18, 18 h
# [8] = tested on: Staphylococcus aureus; assay: Antibacterial activity against methicillin-resistant Staphylococcus aureus 13-23 clinical isolate after 18 hrs by agar dilution method; conditions: 13-23, 18 h
# [9] = tested on: Staphylococcus aureus; assay: Antibacterial activity against methicillin-resistant Staphylococcus aureus 16-30 clinical isolate after 18 hrs by agar dilution method; conditions: 16-30, 18 h
# [10] = tested on: Staphylococcus aureus; assay: Antibacterial activity against methicillin-resistant Staphylococcus aureus 16-34 clinical isolate after 18 hrs by agar dilution method; conditions: 16-34, 18 h
SMILES,MIC [1] [µg/mL],MIC [2] [µg/mL],MIC [3] [µg/mL],MIC [4] [µg/mL],MIC [5] [µg/mL],MIC [6] [µg/mL],MIC [7] [µg/mL],MIC [8] [µg/mL],MIC [9] [µg/mL],MIC [10] [µg/mL]
COC(=O)c1ccc(Cc2cc3c4ccc(OC)c(OC)c4c[n+]4c3c3c(cc5c(c23)OCO5)CC4)cc1.[Br-],32,64,32,64,32,64,32,64,64,> 64
COc1ccc2c(c[n+]3c4c2cc(Cc2cc(C(F)(F)F)cc(C(F)(F)F)c2)c2c5c(cc(c24)CC3)OCO5)c1OC.[Br-],> 64,> 64,> 64,> 64,> 64,> 64,> 64,> 64,> 64,> 64
COc1ccc2c(c[n+]3c4c2cc(Cc2ccc(C#N)cc2)c2c5c(cc(c24)CC3)OCO5)c1OC.[Br-],> 64,> 64,> 64,> 64,> 64,> 64,> 64,> 64,> 64,> 64
COc1ccc2c(c[n+]3c4c2cc(Cc2ccc(Cl)cc2)c2c5c(cc(c24)CC3)OCO5)c1OC.[Br-],8,8,8,32,8,32,8,8,4,4
COC(=O)C(c1ccccc1)c1cc2c3ccc(OC)c(OC)c3c[n+]3c2c2c(cc4c(c12)OCO4)CC3.[Br-] (stereo not given),> 64,> 64,> 64,> 64,> 64,> 64,> 64,> 64,> 64,> 64
COc1ccc2c(c[n+]3c4c2cc(Cc2ccc([N+](=O)[O-])cc2)c2c5c(cc(c24)CC3)OCO5)c1OC.[Br-],> 64,> 64,> 64,> 64,> 64,> 64,> 64,> 64,> 64,> 64
COc1ccc2c(c[n+]3c4c2cc(Cc2ccncc2)c2c5c(cc(c24)CC3)OCO5)c1OC.[Br-],64,64,64,64,64,64,64,32,64,64
COc1ccc2c(c[n+]3c4c2cc(Cc2ccc(F)c(C(F)(F)F)c2)c2c5c(cc(c24)CC3)OCO5)c1OC.[Br-],32,8,32,32,32,32,16,32,16,64
COc1ccc2c(c[n+]3c4c2cc(Cc2ccc(C(C)C)cc2)c2c5c(cc(c24)CC3)OCO5)c1OC.[Br-],8,8,8,32,16,32,32,32,16,16
COc1ccc2c(c[n+]3c4c2cc(Cc2ccc(C(C)(C)C)cc2)c2c5c(cc(c24)CC3)OCO5)c1OC.[Br-],32,32,64,64,64,64,64,64,64,64
COc1ccc2c(c[n+]3c4c2cc(Cc2ccc(SC(F)(F)F)cc2)c2c5c(cc(c24)CC3)OCO5)c1OC.[Br-],> 64,> 64,> 64,> 64,> 64,> 64,> 64,> 64,> 64,> 64
COc1ccc2c(c[n+]3c4c2cc(Cc2ccc(OC(F)(F)F)cc2)c2c5c(cc(c24)CC3)OCO5)c1OC.[Br-],32,64,32,64,64,64,32,32,64,64
COc1ccc2c(c[n+]3c4c2cc(Cc2ccc(F)cc2)c2c5c(cc(c24)CC3)OCO5)c1OC.[Br-],4,4,4,4,4,8,4,2,4,4
COc1ccc2c(c[n+]3c4c2cc(Cc2ccccc2[N+](=O)[O-])c2c5c(cc(c24)CC3)OCO5)c1OC.[Br-],8,8,16,32,8,64,8,16,8,8
COc1ccc2c(c[n+]3c4c2cc(Cc2cc(C)cc(C)c2)c2c5c(cc(c24)CC3)OCO5)c1OC.[Br-],4,4,4,8,2,8,4,4,4,4
COc1ccc2c(c[n+]3c4c2cc(Cc2cccnc2)c2c5c(cc(c24)CC3)OCO5)c1OC.[Br-],16,16,32,> 64,16,32,32,32,32,32
COc1ccc2c(c[n+]3c4c2cc(Cc2c(F)cccc2F)c2c5c(cc(c24)CC3)OCO5)c1OC.[Br-],4,4,8,8,2,8,4,4,4,2
COc1ccc2c(c[n+]3c4c2cc(Cc2ccc(Br)cc2)c2c5c(cc(c24)CC3)OCO5)c1OC.[Br-],16,16,16,32,16,64,16,16,16,16
COc1ccc2c(c[n+]3c4c2cc(Cc2ccc(F)cc2F)c2c5c(cc(c24)CC3)OCO5)c1OC.[Br-],4,2,4,8,4,4,4,4,2,2
